Tested on: Pfg
Experiment: Binding of biotinylated Pfg to immobilized fibrinogen (polystyrene plate)
Parameters: species or system Propionibacterium acnes
Details: various quantities of fibrinogen immobilized; biotinylated Pfg 0.1 μg/ml, 2 h at 23° C.
Experimental: FIG. 5: Binding of P. acnes surface proteins to fibrinogen. (A) Various quantities of human fibrinogen (hFg) and bovine fibrinogen (bFg) were immobilized onto a 96-well polystyrene plate at 4° C. for 18 h and incubated with biotinylated Pfg at 0.1 μg/ml for 2 h at 23° C. Bovine serum albumin (BSA) was used as negative control. Bound material was detected by using the HRP-streptavidin conjugate. Peroxidase activity was measured by using the ABTS substrate at 405 nm. Proteins (10 μg per lane) were separated by 10% SDS-PAGE and detected by (B) Commassie blue staining, and transferred to nitrocellulose membrane and incubated with (C) HRP-streptavidine alone, and (D) biotinylated Pfg (0.1 μg/ml). Lanes 1: molecular weight standards. Lane 2: BSA. […]
To characterize the interaction between P. acnes and ligands, we used biotinylated molecules in quantitative and qualitative assays. […] For quantitative analysis, unlabeled protein were diluted into 50 mM carbonate-bicarbonate, pH 9.6 buffer to yield a protein concentration ranging from 0.01 to 50 μg/ml, and then immobilized to 96-well polystyrene plates at 4° C. overnight. […] After washing, bound peroxidase was detected using the chromogenic peroxidase substrate ABTS. […] Binding activity was detected by incubating the membranes with 20 ml of PBT containing biotinylated proteins (0.1 μg/ml) for 2 h at room temperature followed by three washes with PBT. […]

human fibrinogen: purified commercial human fibrinogen (Sigma), glycoprotein hexamer of Aα, Bß and γ chains
Binding of biotinylated Pfg to immobilized fibrinogen: dose-dependent with a higher affinity for hFg

— patent US10323078B2, “Isolated peptides and fragments thereof from fibrinogen for use as drugs, particularly in skin inflammatory diseases” (Universite Paris Descartes, priority 2015, dated 2019)
